Assay results reported in patent publication US7785807B2, “Voltage-gated, pH-sensitive anion channel and its novel splice variant involved in taste sensation” (Monell Chemical Senses Center, priority 2004, dated 2010).
Entries after “also recorded” stand apart in the source; their conditions may differ.

Key:
Assay type in all cases: cell-based
[1] = molecular target: T1, human ClC-4 (Homo sapiens, UniProt P51793); assay: Two-electrode voltage-clamp recording of human ClC-4 expressed in Xenopus oocytes, chloride channel inhibitor effect
T1 construct: one clone was isolated, which contained the entire coding region; expressed in transfected cells; host or cells: Xenopus laevis oocytes injected with in vitro transcribed cRNA
T1 sequence (P51793 1-760): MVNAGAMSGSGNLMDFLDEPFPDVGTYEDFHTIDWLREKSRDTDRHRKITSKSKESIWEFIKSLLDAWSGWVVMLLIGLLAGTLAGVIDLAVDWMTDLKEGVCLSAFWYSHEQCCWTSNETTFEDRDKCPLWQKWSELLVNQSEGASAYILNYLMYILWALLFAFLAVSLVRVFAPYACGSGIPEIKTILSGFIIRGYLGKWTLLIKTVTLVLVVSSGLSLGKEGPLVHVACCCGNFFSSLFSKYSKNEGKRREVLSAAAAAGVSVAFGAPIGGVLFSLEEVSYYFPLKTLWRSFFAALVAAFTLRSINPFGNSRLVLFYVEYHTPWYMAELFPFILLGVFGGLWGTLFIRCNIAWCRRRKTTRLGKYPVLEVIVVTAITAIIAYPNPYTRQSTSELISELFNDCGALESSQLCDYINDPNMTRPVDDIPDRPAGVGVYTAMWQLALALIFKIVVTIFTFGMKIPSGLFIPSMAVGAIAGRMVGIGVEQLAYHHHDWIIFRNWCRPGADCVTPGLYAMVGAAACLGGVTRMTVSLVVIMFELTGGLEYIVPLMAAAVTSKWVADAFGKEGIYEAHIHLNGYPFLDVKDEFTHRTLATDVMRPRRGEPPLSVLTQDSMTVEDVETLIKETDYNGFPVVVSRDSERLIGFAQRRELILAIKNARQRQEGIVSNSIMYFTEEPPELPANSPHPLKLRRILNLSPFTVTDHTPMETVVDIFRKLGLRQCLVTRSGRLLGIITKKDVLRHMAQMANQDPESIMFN
Description: (§1) ClC-4 and ClC-4A cDNAs were subcloned into the expression vector pCR Blunt II TOPO. Capped sense cRNA was synthesized from the linearized expression constructs by T7 RNA polymerase with nMessage mMachine in vitro transcription kit and tailed with polyA tailing kit (Ambion). The synthesized cRNA products were phenol extracted, ethyl alcohol precipitated, and then dissolved in nuclease-free water at about 0.5 ng/nl for injection. Dumont stage V or VI oocytes were obtained from adult female laboratory bred Xenopus laevis, and their follicles were removed by collagenase digestion. […] Membrane currents were recorded using the two-electrode voltage-clamp technique in ND96 solution (96 mM NaCl, 2 mM KCl, 1.8 mM CaCl2, 1 mM MgCl2, 5 mM Na-HEPES, pH 7.4). […]
(§2) Recording and current-passing micropipettes with tip resistance <5 MΩ when filled with 3 M KCl were pulled from glass capillaries (A-M Systems Inc., Carlsburg, Wash., USA) using a horizontal puller (Suffer P-80/PC). Currents were recorded with a GeneClamp 500 amplifier, digitized with a Digidata 1200 A/D-D/A system, and stored on a computer running pCLAMP 6 software (all from Axon Instruments, Foster City, Calif., USA). […]

[2] = molecular target: T2, ClC-4A (Mus musculus, UniProt Q61418); assay: Two-electrode voltage-clamp recording of ClC-4A expressed in Xenopus oocytes, chloride channel inhibitor effect
T2 construct: expressed in transfected cells; host or cells: Xenopus laevis oocytes injected with in vitro transcribed cRNA
T2 sequence (Q61418 61-747): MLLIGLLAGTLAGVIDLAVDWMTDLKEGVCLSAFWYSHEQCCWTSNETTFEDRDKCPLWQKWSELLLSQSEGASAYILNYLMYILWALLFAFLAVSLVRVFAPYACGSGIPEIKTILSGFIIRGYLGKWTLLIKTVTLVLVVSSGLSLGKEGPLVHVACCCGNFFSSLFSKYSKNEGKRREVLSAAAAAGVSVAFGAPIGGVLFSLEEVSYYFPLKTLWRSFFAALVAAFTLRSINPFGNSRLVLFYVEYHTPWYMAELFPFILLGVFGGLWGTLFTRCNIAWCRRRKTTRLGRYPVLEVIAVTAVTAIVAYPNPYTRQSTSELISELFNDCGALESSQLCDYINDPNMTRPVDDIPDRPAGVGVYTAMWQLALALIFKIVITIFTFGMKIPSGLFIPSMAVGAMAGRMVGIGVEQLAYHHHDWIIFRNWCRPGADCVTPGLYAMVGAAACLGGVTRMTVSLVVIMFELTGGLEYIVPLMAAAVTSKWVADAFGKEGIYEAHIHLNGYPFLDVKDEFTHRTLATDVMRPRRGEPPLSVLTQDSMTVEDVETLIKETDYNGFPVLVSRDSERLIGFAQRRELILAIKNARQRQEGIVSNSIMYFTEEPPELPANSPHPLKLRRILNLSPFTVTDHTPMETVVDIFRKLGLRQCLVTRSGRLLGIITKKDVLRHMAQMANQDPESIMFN
Description: as §1, §2

[3] = molecular target: T3, mouse ClC-4 (Mus musculus, UniProt Q61418); assay: Two-electrode voltage-clamp recording of mouse ClC-4 expressed in Xenopus oocytes, chloride channel inhibitor effect
T3 construct: a pair of PCR primers was designed to encompass the entire coding region; expressed in transfected cells; host or cells: Xenopus laevis oocytes injected with in vitro transcribed cRNA
T3 sequence (Q61418 1-747): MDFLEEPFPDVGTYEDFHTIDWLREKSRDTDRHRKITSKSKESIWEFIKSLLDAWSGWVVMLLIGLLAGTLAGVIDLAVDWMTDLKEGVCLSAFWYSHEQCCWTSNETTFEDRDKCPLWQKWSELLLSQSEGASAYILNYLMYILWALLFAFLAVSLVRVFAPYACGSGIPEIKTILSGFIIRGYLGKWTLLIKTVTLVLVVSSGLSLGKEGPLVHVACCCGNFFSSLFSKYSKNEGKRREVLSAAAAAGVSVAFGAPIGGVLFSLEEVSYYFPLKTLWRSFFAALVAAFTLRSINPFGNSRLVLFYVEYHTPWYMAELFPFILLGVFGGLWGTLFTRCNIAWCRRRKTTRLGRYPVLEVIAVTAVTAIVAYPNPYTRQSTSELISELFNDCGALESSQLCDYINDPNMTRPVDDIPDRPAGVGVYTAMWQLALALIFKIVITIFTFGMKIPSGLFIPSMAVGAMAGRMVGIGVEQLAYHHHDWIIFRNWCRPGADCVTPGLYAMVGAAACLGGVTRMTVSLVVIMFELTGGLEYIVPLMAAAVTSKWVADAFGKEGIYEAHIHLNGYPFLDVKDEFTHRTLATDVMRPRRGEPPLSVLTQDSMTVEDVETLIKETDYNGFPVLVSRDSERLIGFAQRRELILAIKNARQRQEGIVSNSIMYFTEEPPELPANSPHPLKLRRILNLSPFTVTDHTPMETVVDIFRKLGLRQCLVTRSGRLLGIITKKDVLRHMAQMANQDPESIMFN
Description: as §1, §2

[4] = 0.3 mM NFA, pH 7.4, Xenopus oocytes
[5] = 0.1 mM NPPB, optimal pH, Xenopus oocytes

inhibition on ion channel conductance [1, 4] | inhibition on ion channel conductance ([2]; 0.3 mM NFA, pH 5.5, Xenopus oocytes) | inhibition on ion channel conductance [3, 4] | inhibition on ion channel conductance [1, 5] | inhibition on ion channel conductance [3, 5] | SMILES | inhibition on ion channel conductance [2, 5]
only a slight inhibitory effect | significantly inhibited | only a slight inhibitory effect |  |  | O=C(O)c1cccnc1Nc1cccc(C(F)(F)F)c1 [NFA, niflumic acid] | 
 |  |  | no apparent effect | no apparent effect | O=C(O)c1cc([N+](=O)[O-])ccc1NCCCc1ccccc1 [NPPB, 5-nitro-2-(3-phenylpropylamino)-benzoic acid] | slightly inhibit; also recorded: inhibited
